From PMC6120877, “Intriguing role of water in protein-ligand binding studied by neutron crystallography on trypsin complexes” (Nature Communications, 2018) come the findings set out here.

Test [1] addresses T1, bovine β-trypsin (Bos taurus, UniProt P00760).
T1 construct: dialyzing a solution of bovine β-trypsin (Sigma Aldrich, product number T8003); purchased Sigma Aldrich T8003
T1 sequence (P00760 24-246): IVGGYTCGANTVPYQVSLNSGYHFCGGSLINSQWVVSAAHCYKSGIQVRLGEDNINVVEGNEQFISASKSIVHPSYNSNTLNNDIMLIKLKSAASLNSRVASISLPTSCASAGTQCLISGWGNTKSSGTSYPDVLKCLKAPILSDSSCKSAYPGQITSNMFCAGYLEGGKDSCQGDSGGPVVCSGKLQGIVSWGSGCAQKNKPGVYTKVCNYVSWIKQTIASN
The test can be described thus: Displacement ITC titration, trypsin (displacement ligand compound 2). The class given is binding. To be noted: HEPES. On the procedure: Sample preparations, measurements and data analyses were performed using the same approach as for our earlier study, which is described in the following. […] ITC data were collected using an ITC200 device (GE Healthcare) at 25 °C with a reference power of 5 µcal s^−1. An initial 0.3 µl volume injection was followed by 19 injections with a volume of 1.9 µl.

Test [2] deals with T1, bovine β-trypsin. Description: Direct ITC titration, trypsin. The class given is binding. To be noted: for number of protons transferred from the buffer onto trypsin upon complex formation (slope of interpolation function): ∆H° vs. buffer ionization enthalpy, three buffers. The method, then:
To determine dissociation constants for trypsin:inhibitor complexes, two different isothermal titration calorimetry (ITC) titration protocols were used. […] Protein samples were prepared by dialyzing a solution of bovine β-trypsin (Sigma Aldrich, product number T8003) against a buffer composed of 80 mM NaCl, 10 mM CaCl2, 0.1 % (w/v) PEG 8000 and 100 mM HEPES, Tricine or Tris at a pH of 7.6 and a temperature of 4 °C while ligands were dissolved in buffer. […] Titrations were performed in three different buffer systems to enable the correction for any proton transfer occurring between buffer and protein upon complex formation. For this purpose, the obtained ∆H° values were plotted against the ionization enthalpy of the used buffer yielding a buffer-corrected enthalpy as the intercept (for more details see footnote b in Supplementary Tables 2 and 3). […] Applying the same protocol and data analysis scheme as used in an earlier study, ITC titrations were performed on an ITC200 device (GE Healthcare) at 25 °C with a reference power of 5 µcal s^−1. The ITC protocol consisted of an initial 0.3 µl volume injection and of 20–25 injections with a volume between 1.5 and 1.8 µl separated by a 220 s time interval. For data analysis, the method described by Turnbull et al. was applied.

Test [3] deals with T2, bovine trypsin (Bos taurus, UniProt P00760).
T2 construct: purchased Worthington Biochemical Corporation LS003707
T2 sequence (P00760 24-246): T1 sequence (P00760 24-246)
Description: Kinetic fluorescence enzyme inhibition assay, trypsin. The class given is biochemical. To be noted: for Ki: fluorescence assay, D-Phe-Pro derivatives. On the procedure:
Following the same approach as used in an earlier study, kinetic data were obtained in black 96-well plates using a Fluoroskan Ascent fluorometer (Thermo Fisher Scientific, Vantaa/Finland; λex = 355 nm, λem = 460 nm). The assay was performed at room temperature in a buffer composed of 43 mM Tris pH 7.8, 132 mM NaCl and 0.0086 % (w/v) PEG 8000. The final trypsin concentration was 65 pM. […] The D-Phe-Pro analogs were dissolved in DMSO and further diluted in buffer to yield a final DMSO concentration in the assay well below 1% (v/v). Mes-d-Arg-Gly-Arg-AMC (Mes = mesyl; AMC = […]) available from a previous study was used as the substrate. […] The uninhibited trypsin-catalyzed reaction was investigated in parallel at the three substrate concentrations 6.3, 12.5, and 25 µM. […] For this purpose, a non-linear fit to the Michaelis-Menten equation modified for reversible competitive inhibitors was used.

For test [4], the target named is T3, human thrombin (Homo sapiens, UniProt P00734).
T3 construct: The analogous assay was applied to human thrombin, which was kindly provided by CSL Behring; purchased CSL Behring
The test can be described thus: Kinetic fluorescence enzyme inhibition assay, thrombin. Type of test: biochemical. Particulars: D-Phe-Pro derivatives.

The mark [5] stands for this setting: buffer-corrected (average over three buffers), 3% (v/v) DMSO.
[6] abbreviates: buffer-corrected (difference between ∆G° and ∆H°), 3% (v/v) DMSO.
Setting [7] is: buffer-corrected (intercept at ionization enthalpy 0), 3% (v/v) DMSO.
Setting [8] is: direct titration, HEPES, 3% (v/v) DMSO.
Setting [9] is: direct titration, Tricine, 3% (v/v) DMSO.
Where [10] appears, read: direct titration, Tris, 3% (v/v) DMSO.

Consider `N=C(N)c1ccccc1` [Benzamidine, benzamidine], for which the “–T∆S°” value in test [1] was -2.44 ± 0.22 kcal/mol; in test [2] (direct titration, HEPES), -3.59 ± 0.072 kcal/mol; in test [2] (direct titration, Tricine), -2.53 ± 0.14 kcal/mol; in test [2] (direct titration, Tris), -1.58 ± 0.096 kcal/mol; in test [2] (direct titration, buffer-corrected (difference between ∆G° and ∆H°)), -5.02 kcal/mol. For the same molecule, the “∆G°” value in test [1] was -6.31 ± 0.14 kcal/mol; in test [2] (direct titration, HEPES), -6.38 ± 0.072 kcal/mol; in test [2] (direct titration, Tricine), -6.33 ± 0.0096 kcal/mol; in test [2] (direct titration, Tris) it was -6.33 ± 0.0072 kcal/mol; in test [2] (direct titration, buffer-corrected (average over three buffers)) it was -6.36 kcal/mol. Further, the “∆H°” value in test [1] is -3.85 ± 0.17 kcal/mol; in test [2] (direct titration, HEPES), -2.8 ± 0.024 kcal/mol; in test [2] (direct titration, Tricine) it was -3.8 ± 0.14 kcal/mol; in test [2] (direct titration, Tris) it was -4.76 ± 0.096 kcal/mol; in test [2] (direct titration, buffer-corrected (intercept at ionization enthalpy 0)), -1.34 kcal/mol. Also, the “number of protons transferred from the buffer onto trypsin upon complex formation (slope of interpolation function)” value (“number … (slope of interpolation function)” below) in test [2] is reported as -0.31. In addition, in test [3] (benzamidine vs. N-amidinopiperidine), the “stronger inhibition of trypsin than N-amidinopiperidine” value is “about 10 fold”.

For `N=C(N)c1ccc(CNC(=O)[C@@H]2CCCN2C(=O)[C@H](N)Cc2ccccc2)cc1` [Compound 2], the Kd in test [2] (setting [5]) was 34 nM; in test [2] (setting [8]) it was 38 ± 7 nM; in test [2] (setting [9]) it was 34 ± 3 nM; in test [2] (setting [10]), 31 ± 5 nM. Moreover, the “∆G°” value in test [2] (setting [5]) is -10.2 kcal/mol; in test [2] (setting [8]), -10.1 ± 0.096 kcal/mol; in test [2] (setting [9]), -10.2 ± 0.048 kcal/mol; in test [2] (setting [10]) it was -10.2 ± 0.096 kcal/mol. Moreover, the “–T∆S°” value in test [2] (setting [6]) is -1.05 kcal/mol; in test [2] (setting [8]) it was -1.65 ± 0.19 kcal/mol; in test [2] (setting [9]), -2.63 ± 0.096 kcal/mol; in test [2] (setting [10]) it was -2.87 ± 0.14 kcal/mol. Moreover, the “∆H°” value in test [2] (setting [7]) is -9.13 kcal/mol; in test [2] (setting [8]) it was -8.48 ± 0.17 kcal/mol; in test [2] (setting [9]), -7.55 ± 0.096 kcal/mol; in test [2] (setting [10]), -7.39 ± 0.096 kcal/mol. Further, in test [2] (3% (v/v) DMSO), the “number … (slope of interpolation function)” value is listed as 0.17. In addition, the Ki in test [3] came out at 15.2 ± 0.2 nM.

`N=C(N)N1CCC(CNC(=O)[C@@H]2CCCN2C(=O)[C@H](N)Cc2ccccc2)CC1.O=C(O)C(F)(F)F.O=C(O)C(F)(F)F` [Compound 1]: the Kd in test [2] (setting [5]) is 3600 nM; in test [2] (setting [8]) it was 3700 ± 200 nM; in test [2] (setting [9]) it was 3300 ± 300 nM; in test [2] (setting [10]), 3700 ± 600 nM. Also, the “∆G°” value in test [2] (setting [5]) is -7.43 kcal/mol; in test [2] (setting [8]), -7.41 ± 0.048 kcal/mol; in test [2] (setting [9]), -7.48 ± 0.048 kcal/mol; in test [2] (setting [10]), -7.41 ± 0.096 kcal/mol. Also, the “–T∆S°” value is -2.22 kcal/mol in test [2] (setting [6]), -2.77 ± 0.072 kcal/mol in test [2] (setting [8]), -3.15 ± 0.12 kcal/mol in test [2] (setting [9]) and -3.51 ± 0.17 kcal/mol in test [2] (setting [10]). The “∆H°” value was -5.21 kcal/mol in test [2] (setting [7]), -4.64 ± 0.072 kcal/mol in test [2] (setting [8]), -4.33 ± 0.12 kcal/mol in test [2] (setting [9]) and -3.9 ± 0.14 kcal/mol in test [2] (setting [10]). In test [2] (3% (v/v) DMSO), the “number … (slope of interpolation function)” value worked out at 0.12. Moreover, the Ki in test [4] was found to be 4.51 ± 0.25 nM; in test [3], 1960 ± 264 nM.
